Source: ChEMBL document CHEMBL1201862, “PubChem BioAssay data set” (2004)
Active and inactive are the calls of the source.

Tests used:
[1] = nonselective StAR promoter luciferase inhibitors – cell-based, luminescence, luciferase reporter, counter-screen for LRH-1 inverse agonist project, dose response (AID 651969); format: functional
[2] = biological target: Nuclear receptor subfamily 5 group A member 2 (Homo sapiens, UniProt O00482); format: functional, cell-based;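 also: HEK293T cells transfected with LRH-1 and a StAR promoter luciferase reporter; potency for inhibitors that lower LRH-1 driven reporter light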
[3] = biological target: Steroidogenic factor 1 (Homo sapiens, UniProt Q13285); test: Counterscreen for inverse agonists of the liver receptor homolog-1 (LRH-1; NR5A2): Luminescence-based cell-based high throughput dose response assay to identify inverse agonists of the Steroidogenic Factor 1 Nuclear Receptor (SF1; NR5A1).; format: functional
[4] = biological target: Cytochrome P450 3A4 (Homo sapiens, UniProt P08684);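 also: CYP3A4 tested as one member of a cytochrome P450 panel screen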
[5] = test system: Escherichia coli; test: microbe, parasite or virus in culture
[6] = bead-based luminescence quenchers, dual-tagged ARNT – biochemical, AlphaScreen, cherry-pick, artefact control for ARNT-TACC3 interaction inhibitor project, dose response (AID 651705); format: functional;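 also: AlphaScreen bead proximity signal that flags compounds interfering with the detection technology; potency reflects signal decrease which marks the compound as an assay artifact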
[7] = biological target: T1, Probable nicotinate-nucleotide adenylyltransferase (Staphylococcus aureus (strain N315), UniProt P65502); format: functional, Staphylococcus aureus subsp. aureus N315; details: read-out: IC50_Mean;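 as to IC50 Mean: confirmatory dose-response retesting of NadD inhibitor hits first found in an ultra-high-throughput screen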
[8] = biological target: Induced myeloid leukemia cell differentiation protein Mcl-1 (Homo sapiens, UniProt Q07820); format: functional
[9] = biological target: T1, Probable nicotinate-nucleotide adenylyltransferase; format: functional, Staphylococcus aureus subsp. aureus N315
[10] = biological target: T2, Low molecular weight phosphotyrosine protein phosphatase (Homo sapiens, UniProt P24666); format: functional; details: read-out: IC50_Mean
T2 sequence (P24666 whole entry): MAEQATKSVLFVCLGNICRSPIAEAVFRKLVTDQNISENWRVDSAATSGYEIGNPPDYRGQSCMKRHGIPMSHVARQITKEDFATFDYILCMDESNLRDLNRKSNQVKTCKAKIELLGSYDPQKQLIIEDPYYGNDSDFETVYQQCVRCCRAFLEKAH

[11] = biological target: T2, Low molecular weight phosphotyrosine protein phosphatase; format: functional; details: read-out: IC50_Mean; remark: listed apart in the source
[12] = biological target: T3, Polyadenylate-binding protein 1 (Homo sapiens, UniProt P11940); test: MLLE binding blockers, Cy5 peptide tracer – biochemical, fluorescence polarization, Cy5-PAM2 peptide, secondary, miRNA deadenylation inhibitor project, dose response (AID 602260); format: functional; details: read-out: IC50_Mean
[13] = biological target: Genome polyprotein (dengue virus type 2, UniProt P29990); test: flavivirus cap methylation enzyme inhibition – biochemical, confirmation dose response, primary screen (AID 588689); format: functional
[14] = biological target: T4, Sentrin-specific protease 1 (Homo sapiens, UniProt Q9P0U3); test: Dose response confirmation of small molecule inhibitors of the catalytic domain of the SUMO protease, SENP1 in a FRET assay.; format: functional; details: read-out: IC50_Mean
[15] = biological target: T4, Sentrin-specific protease 1; test: SENP1 catalytic domain blockers, concentration series – biochemical, kinetic FRET, dose response (AID 651697); format: functional; details: read-out: IC50_Mean
[16] = biological target: T3, Polyadenylate-binding protein 1; test: MLLE domain peptide-binding blockers, IC50 – biochemical, fluorescence polarization, FITC-PAM2 peptide, dose response (AID 602259); format: functional; details: read-out: IC50_Mean
[17] = biological target: Adenosylmethionine-8-amino-7-oxononanoate aminotransferase (Mycobacterium tuberculosis, UniProt P9WQ81); test: Mycobacterium tuberculosis BioA enzyme inhibitor Measured in Biochemical System Using Plate Reader - 2163-02_Inhibitor_Dose_CherryPick_Activity.; format: functional, Mycobacterium tuberculosis UT205
[18] = biological target: T5, Protein RecA (Mycobacterium tuberculosis, UniProt P9WHJ3); test: Fluorescence Cell-Free Homogeneous Dose Retest to Identify Inhibitors of RecA-Intein Splicing Activity. [Related pubchem assays (depositor defined):AID2097, AID2223, AID489010, AID492950]; format: functional
T5 sequence (P9WHJ3 whole entry): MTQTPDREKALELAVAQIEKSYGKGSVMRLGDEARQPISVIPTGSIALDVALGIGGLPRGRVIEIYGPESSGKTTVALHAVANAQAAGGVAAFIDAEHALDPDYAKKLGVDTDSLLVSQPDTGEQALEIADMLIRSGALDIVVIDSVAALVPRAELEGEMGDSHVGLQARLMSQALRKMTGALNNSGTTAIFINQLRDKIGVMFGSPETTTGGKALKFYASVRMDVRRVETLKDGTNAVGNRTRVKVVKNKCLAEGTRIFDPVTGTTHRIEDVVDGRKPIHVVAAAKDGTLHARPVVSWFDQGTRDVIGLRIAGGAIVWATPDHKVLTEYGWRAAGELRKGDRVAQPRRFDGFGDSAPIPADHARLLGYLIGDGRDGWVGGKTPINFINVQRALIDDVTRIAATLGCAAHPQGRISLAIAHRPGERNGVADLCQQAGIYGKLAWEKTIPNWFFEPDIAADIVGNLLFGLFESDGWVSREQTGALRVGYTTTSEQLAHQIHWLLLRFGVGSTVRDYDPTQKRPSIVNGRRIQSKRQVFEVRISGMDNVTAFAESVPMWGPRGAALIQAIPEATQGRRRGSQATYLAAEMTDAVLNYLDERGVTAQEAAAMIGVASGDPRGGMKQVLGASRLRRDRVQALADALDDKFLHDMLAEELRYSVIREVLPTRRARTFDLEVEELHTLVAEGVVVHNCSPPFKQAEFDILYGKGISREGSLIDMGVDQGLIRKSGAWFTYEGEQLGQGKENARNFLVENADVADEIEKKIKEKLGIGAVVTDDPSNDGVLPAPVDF

[19] = reduction of Shn3 3'UTR-driven luciferase in osteoblasts – cell-based, Clone20 osteoblasts, firefly luciferase, cherry-picked, dose response (AID 624132); format: functional;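 also: firefly luciferase luminescence from reporter carrying the Shn3 3'UTR in osteoblasts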
[20] = biological target: Hepatocyte nuclear factor 4-alpha (Homo sapiens, UniProt P41235); format: functional, cell-based;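 also: biochemical luminescence-based dose-response counterscreen measuring inhibition of HNF4 dimerization, run alongside a screen for blockers of ABHD5–perilipin-5 interaction; split luciferase complementation of HNF4 fusion proteins in cell lysate measuring dimerization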
[21] = biological target: T6, Replicative DNA helicase DnaB (Mycobacterium tuberculosis, UniProt P9WMR3); test: DnaB intein splicing inhibitors, dose response, biochemical, cell-free fluorescence (AID 449749); format: functional
T6 sequence (P9WMR3 whole entry): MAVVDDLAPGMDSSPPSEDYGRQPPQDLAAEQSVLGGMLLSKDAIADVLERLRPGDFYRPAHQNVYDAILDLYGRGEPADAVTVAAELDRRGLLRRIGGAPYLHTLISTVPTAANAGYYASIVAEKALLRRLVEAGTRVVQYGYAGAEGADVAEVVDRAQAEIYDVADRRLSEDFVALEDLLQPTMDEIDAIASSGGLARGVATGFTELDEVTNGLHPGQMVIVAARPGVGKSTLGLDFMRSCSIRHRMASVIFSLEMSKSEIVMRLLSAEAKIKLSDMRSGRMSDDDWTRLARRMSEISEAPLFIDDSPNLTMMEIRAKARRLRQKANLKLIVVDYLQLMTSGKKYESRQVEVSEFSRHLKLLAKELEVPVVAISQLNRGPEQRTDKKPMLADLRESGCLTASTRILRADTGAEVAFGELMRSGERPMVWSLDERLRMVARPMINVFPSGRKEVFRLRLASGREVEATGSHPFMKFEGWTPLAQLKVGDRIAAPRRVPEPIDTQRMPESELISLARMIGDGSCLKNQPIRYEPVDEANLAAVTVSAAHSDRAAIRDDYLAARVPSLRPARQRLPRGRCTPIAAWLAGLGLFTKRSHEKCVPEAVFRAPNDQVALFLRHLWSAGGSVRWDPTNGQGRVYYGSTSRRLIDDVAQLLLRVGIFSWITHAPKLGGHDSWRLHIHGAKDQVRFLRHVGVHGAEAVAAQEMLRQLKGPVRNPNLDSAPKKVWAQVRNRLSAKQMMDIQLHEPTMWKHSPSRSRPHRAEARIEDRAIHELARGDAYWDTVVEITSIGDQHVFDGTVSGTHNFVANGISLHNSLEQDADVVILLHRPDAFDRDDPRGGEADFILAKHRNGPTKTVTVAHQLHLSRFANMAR

[22] = test system: Vero; test: viability of Vero cells under compound – cytotoxicity control for flavivirus capping enzyme inhibitors (AID 588742); format: functional; details: Chlorocebus sabaeus
[23] = loss of viability in HepG2 cells – cell-based, CellTiter-Glo, cherry-picked, cytotoxicity control for Shn3 inhibitor project, dose response (AID 624134); format: functional
[24] = non-specific 3'UTR reporter inhibition in Clone20-Shn3RL – cell-based, Renilla luciferase, cherry-picked, counter-screen for Shn3 inhibitor project, dose response (AID 624133); format: functional
[25] = inhibition of ARNT PAS-B/TACC3 complex formation – biochemical, AlphaScreen, cherry-picked samples, confirmation (AID 651703); format: functional, Homo sapiens;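 also: His-tagged ARNT PAS-B domain paired with GST-TACC3 E629A dimer coactivator fragment; potency of inhibitors that break up the complex and lower AlphaScreen signal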
[26] = biological target: T7, Aryl hydrocarbon receptor (Homo sapiens, UniProt P35869); details: Potency;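 also: confirmatory quantitative high-throughput screen measuring activation of the AhR signaling pathway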
T7 sequence (P35869 whole entry): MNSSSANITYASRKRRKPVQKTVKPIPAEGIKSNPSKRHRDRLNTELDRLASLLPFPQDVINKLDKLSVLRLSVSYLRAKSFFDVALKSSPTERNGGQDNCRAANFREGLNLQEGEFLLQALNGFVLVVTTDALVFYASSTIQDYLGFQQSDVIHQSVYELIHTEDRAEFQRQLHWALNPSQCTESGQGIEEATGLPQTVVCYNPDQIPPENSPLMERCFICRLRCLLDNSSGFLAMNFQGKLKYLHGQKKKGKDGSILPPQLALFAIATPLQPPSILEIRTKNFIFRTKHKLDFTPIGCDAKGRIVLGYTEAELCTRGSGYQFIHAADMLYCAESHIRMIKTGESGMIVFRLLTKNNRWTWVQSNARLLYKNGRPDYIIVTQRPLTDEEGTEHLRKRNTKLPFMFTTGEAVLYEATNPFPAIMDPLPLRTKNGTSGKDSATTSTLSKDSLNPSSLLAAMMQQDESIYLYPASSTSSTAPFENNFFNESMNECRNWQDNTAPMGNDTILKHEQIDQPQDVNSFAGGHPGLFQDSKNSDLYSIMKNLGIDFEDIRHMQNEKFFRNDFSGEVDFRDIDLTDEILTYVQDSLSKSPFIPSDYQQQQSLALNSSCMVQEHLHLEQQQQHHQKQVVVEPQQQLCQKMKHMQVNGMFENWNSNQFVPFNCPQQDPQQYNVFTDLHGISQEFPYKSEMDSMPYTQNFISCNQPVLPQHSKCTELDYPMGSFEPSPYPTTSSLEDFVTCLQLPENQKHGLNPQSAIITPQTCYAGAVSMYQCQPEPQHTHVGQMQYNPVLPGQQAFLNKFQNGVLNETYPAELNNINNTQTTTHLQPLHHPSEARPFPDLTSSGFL

[27] = biological target: Dual specificity protein phosphatase 3 (Homo sapiens, UniProt P51452); test: VHR phosphatase inhibition, dose response, selectivity assay for STEP inhibitor project, biochemical (AID 602374); format: functional; details: read-out: IC50_Mean
[28] = biological target: Tyrosine-protein phosphatase non-receptor type 11 (Homo sapiens, UniProt Q06124); test: PTPN11 enzyme inhibitors – biochemical, selectivity assay for STEP inhibitor project, dose response (AID 602367); format: functional; details: read-out: IC50_Mean
[29] = biological target: Tyrosine-protein phosphatase non-receptor type 5 (Homo sapiens, UniProt P54829); test: PTPN5 enzyme inhibition – biochemical, fluorescence intensity, uHTS hits, confirmation (AID 602372); format: functional; details: read-out: IC50_Mean

T1 sequence (P65502 whole entry): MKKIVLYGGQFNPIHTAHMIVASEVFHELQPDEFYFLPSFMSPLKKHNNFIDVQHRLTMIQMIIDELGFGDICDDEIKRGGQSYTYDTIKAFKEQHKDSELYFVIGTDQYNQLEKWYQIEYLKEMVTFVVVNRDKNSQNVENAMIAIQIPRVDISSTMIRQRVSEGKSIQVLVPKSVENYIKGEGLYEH
T4 sequence (Q9P0U3 whole entry, the tested form may be a part): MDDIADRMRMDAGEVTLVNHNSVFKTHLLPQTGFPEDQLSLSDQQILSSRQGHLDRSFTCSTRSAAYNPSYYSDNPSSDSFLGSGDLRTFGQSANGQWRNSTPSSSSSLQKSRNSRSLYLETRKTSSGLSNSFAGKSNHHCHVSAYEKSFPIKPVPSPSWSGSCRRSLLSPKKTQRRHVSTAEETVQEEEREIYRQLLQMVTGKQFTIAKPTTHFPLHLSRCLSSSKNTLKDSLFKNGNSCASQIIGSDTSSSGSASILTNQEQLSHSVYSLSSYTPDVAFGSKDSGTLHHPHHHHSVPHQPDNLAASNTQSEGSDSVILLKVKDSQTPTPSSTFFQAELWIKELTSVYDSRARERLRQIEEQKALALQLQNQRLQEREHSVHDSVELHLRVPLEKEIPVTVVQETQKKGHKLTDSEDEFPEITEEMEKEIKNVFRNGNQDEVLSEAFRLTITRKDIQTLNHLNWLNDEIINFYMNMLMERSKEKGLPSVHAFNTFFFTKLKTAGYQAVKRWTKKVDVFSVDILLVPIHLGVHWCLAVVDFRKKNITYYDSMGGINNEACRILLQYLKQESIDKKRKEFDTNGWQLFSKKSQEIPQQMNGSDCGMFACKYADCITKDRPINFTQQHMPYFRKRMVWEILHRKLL
T3 sequence (P11940 whole entry): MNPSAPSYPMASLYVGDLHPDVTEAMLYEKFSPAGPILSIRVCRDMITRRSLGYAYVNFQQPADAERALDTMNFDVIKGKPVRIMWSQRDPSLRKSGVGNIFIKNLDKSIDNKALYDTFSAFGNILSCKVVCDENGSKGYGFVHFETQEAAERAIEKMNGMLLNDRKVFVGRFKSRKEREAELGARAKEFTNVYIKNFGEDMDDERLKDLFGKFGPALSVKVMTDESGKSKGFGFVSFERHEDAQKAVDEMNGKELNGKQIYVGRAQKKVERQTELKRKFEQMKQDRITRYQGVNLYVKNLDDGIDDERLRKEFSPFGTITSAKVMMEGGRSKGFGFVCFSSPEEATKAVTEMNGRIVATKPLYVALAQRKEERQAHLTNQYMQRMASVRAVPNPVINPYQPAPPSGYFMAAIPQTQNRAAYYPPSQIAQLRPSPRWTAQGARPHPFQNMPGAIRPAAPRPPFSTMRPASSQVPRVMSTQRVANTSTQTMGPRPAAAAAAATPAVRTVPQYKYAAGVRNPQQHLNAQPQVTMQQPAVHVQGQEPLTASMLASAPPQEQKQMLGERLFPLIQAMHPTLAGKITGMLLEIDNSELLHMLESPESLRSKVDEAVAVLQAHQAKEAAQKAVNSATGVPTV
Sequence of Genome polyprotein (P29990 2492-3391 limits assumed): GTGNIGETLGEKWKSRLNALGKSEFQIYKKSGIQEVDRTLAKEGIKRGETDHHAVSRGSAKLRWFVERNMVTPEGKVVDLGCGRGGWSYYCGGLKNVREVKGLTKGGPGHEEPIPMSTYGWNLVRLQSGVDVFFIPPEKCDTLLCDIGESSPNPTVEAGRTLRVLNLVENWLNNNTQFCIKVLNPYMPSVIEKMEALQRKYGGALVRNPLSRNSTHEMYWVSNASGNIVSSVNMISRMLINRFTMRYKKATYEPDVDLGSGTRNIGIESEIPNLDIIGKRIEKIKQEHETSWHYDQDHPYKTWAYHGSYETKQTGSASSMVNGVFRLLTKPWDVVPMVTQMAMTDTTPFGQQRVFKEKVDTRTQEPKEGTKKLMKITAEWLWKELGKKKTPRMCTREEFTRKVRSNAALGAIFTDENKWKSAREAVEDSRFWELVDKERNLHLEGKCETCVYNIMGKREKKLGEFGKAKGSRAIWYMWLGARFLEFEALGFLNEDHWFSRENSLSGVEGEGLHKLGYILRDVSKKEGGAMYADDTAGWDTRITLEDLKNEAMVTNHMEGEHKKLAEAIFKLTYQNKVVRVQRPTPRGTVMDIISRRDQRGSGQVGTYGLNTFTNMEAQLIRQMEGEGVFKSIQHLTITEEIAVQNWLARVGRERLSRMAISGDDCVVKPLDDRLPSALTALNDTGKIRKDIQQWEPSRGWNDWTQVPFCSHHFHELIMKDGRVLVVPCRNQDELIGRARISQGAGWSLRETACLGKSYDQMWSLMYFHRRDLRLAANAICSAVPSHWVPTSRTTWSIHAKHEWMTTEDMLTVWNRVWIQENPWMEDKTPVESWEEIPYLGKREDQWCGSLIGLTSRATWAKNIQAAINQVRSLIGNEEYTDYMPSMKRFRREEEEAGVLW
Sequence of Dual specificity protein phosphatase 3 (P51452 whole entry): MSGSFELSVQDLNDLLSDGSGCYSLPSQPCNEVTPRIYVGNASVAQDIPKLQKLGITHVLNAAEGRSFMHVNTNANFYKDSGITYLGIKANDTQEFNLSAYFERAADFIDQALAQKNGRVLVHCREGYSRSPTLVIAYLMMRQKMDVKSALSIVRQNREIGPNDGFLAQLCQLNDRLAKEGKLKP
Sequence of Cytochrome P450 3A4 (P08684 whole entry): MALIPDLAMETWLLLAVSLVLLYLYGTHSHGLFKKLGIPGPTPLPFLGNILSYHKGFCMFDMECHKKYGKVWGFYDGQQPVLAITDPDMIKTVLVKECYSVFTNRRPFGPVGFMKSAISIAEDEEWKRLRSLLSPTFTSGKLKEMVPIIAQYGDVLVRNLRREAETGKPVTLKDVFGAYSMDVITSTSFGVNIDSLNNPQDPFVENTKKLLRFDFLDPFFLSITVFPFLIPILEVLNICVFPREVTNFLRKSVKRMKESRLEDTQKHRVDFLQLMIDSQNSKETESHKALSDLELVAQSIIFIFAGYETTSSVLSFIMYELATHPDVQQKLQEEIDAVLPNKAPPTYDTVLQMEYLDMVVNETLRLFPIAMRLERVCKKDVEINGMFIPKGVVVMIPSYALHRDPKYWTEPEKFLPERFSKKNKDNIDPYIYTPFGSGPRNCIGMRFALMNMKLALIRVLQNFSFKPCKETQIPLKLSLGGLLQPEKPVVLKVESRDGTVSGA
Sequence of Tyrosine-protein phosphatase non-receptor type 11 (Q06124 whole entry): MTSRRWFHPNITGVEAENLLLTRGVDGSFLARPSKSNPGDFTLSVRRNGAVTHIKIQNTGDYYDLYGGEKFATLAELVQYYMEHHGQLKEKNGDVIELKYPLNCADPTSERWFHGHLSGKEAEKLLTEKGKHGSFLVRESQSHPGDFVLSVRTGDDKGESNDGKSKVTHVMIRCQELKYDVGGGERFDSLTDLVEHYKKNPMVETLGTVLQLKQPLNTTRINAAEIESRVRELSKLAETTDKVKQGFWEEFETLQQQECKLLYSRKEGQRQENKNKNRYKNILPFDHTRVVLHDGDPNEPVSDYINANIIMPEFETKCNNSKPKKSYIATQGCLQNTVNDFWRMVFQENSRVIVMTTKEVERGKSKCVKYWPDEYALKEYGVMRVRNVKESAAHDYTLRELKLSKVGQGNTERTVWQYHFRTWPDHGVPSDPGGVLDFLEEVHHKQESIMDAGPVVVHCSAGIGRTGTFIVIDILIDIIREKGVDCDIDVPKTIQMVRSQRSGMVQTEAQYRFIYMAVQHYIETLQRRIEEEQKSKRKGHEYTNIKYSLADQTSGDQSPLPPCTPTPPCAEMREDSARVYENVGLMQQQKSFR
Sequence of Hepatocyte nuclear factor 4-alpha (P41235 whole entry, the tested form may be a part): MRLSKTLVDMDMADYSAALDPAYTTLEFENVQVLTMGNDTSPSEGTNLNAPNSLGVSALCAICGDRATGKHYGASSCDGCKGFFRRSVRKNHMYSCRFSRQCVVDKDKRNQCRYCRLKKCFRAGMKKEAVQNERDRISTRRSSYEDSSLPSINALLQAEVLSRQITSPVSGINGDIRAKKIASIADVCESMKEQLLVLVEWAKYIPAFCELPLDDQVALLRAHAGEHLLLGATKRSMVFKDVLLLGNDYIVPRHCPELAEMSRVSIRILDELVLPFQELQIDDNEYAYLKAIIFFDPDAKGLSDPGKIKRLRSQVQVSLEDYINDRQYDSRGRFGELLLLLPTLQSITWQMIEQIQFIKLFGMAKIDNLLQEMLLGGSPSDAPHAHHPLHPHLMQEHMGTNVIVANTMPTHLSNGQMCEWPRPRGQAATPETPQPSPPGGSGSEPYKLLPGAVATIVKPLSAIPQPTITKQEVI
Sequence of Induced myeloid leukemia cell differentiation protein Mcl-1 (Q07820 whole entry): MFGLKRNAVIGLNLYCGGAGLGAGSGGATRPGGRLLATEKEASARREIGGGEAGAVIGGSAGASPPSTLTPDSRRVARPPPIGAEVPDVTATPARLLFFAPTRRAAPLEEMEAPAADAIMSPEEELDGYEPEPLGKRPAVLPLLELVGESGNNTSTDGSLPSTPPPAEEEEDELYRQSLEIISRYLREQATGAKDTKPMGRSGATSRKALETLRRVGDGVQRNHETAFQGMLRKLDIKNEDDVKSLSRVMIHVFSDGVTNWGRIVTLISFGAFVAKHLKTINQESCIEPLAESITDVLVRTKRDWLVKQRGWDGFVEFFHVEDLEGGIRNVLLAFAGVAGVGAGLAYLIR
Sequence of Steroidogenic factor 1 (Q13285 whole entry): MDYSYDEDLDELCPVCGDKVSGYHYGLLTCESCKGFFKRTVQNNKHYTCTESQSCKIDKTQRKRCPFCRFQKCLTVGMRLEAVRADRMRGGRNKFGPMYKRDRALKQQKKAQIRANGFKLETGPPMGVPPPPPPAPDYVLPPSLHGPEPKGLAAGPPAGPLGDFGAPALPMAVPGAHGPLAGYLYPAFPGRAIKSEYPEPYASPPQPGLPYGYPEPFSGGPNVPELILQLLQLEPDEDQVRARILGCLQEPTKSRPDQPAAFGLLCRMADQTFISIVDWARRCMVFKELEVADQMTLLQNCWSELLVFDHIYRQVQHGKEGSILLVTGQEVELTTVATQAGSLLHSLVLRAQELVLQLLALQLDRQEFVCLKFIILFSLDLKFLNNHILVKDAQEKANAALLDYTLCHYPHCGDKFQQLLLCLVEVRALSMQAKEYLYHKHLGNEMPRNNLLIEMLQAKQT

SMILES: NC(=O)C1CCN(C(=O)COc2ccc3c4c(c(=O)oc3c2)CCC4)CC1
- IC50 [1]: 35.9 µM (inactive)
- IC50 [2]: 35.9 µM (inactive)
- IC50 [3]: 35.9 µM (inactive)

SMILES: Cn1c(-c2ccccc2)cnc1N
- AC50 [4]: 28.2 µM (inconclusive)
- AC50 [5]: 22.7 µM (active)
- AC50 [6]: 102 µM (active)

SMILES: O=C(Nc1ccc(S(=O)(=O)Nc2nccs2)cc1)/C(=C/c1ccccc1Cl)NC(=O)c1ccccc1
- IC50 [7]: 22.8 µM (active)
- IC50 [8]: 2.73 µM (active)
- IC50 [9]: 6.5 µM (active)

SMILES: Nc1ncc2c(n1)CC(c1ccco1)CC2=O (stereo not given)
- IC50 [10]: 40.5 µM (inactive)
- IC50 [11]: 56.8 µM (inactive)

SMILES: Nc1nc(O)cc(N=Nc2ccc(O)cc2)n1
- IC50 [12]: > 66 µM (inactive)
- IC50 [13]: 26.7 µM (active)
- IC50 [14]: 15.4 µM (active)
- IC50 [15]: 11.6 µM (active)
- IC50 [16]: 43.8 µM (inactive)

SMILES: CC(=O)c1ccc(N2CCN(C(=O)Cc3ccccc3)CC2)c(F)c1
- AC50 [17]: 4.97 µM (active)

SMILES: CSc1nnc(NC(=O)c2nc(S(=O)(=O)Cc3ccccc3)ncc2Cl)s1
- IC50 [13]: 50.6 µM (active)
- EC50 [18]: 4.73 µM (active)
- AC50 [19]: 1.35 µM (active)
- IC50 [20]: 5.52 µM (active)
- AC50 [21]: 5.23 µM (active)
- CC50 [22]: 31.1 µM (active)
- AC50 [23]: 67.4 µM (active)
- AC50 [24]: 14.5 µM (active)

SMILES: C/C(CC(=O)NCc1ccccc1Cl)=N/NC(=O)c1ccccn1
- AC50 [25]: 77.8 µM (active)

SMILES: CCOP(=S)(OCC)Oc1ncn(-c2ccccc2)n1 [TRIAZOPHOS]
- AC50 [26]: 11.2 µM (inconclusive)

SMILES: CCOc1ccc(CCNC(=O)CS(=O)(=O)Cc2nc(-c3ccc(OC)cc3)oc2C)cc1
- IC50 [27]: 26.8 µM (inactive)
- IC50 [28]: 9.1 µM (active)
- IC50 [29]: > 80 µM (inactive)
